According to patent US20110118274A1, “PROTEASOME INHIBITORS AND THEIR USE IN TREATING PATHOGEN INFECTION AND CANCER” (CORNELL RESEARCH FOUNDATION, INC., priority 2007, published 2011):
Read-outs that look alike come from different tables or passages of the source.

Assays:
Mtb PrcAB-OG [1] = target: T1, Mtb PrcAB-OG (Mycobacterium tuberculosis, UniProt P9WHT9); test: biochemical; format: biochemical
T1 construct: made in house; host or cells: E. coli
Target sequence in this assay (P9WHT9 58-291): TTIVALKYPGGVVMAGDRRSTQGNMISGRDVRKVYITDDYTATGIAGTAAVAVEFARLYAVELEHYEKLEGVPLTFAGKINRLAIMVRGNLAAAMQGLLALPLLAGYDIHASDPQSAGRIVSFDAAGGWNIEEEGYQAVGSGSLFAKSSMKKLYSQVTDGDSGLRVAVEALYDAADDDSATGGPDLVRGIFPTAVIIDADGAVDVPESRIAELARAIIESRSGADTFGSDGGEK

[2] = target: human 20S-β5 (Hu20S PA28) (Homo sapiens, UniProt P28074); test: Kinetics of inhibition of human 20S proteasome β5 site in presence of PA28; format: biochemical
M. bovis BCG = test: microbe, parasite or virus in culture; format: cell-based, Mycobacterium bovis BCG; settings: for log reduction at 25 µM: Mycobacterium tuberculosis variant bovis BCG, BCG, 96 h, read-out: BCG killing (25 μM); for reduction of colony forming units (CFU): cells exposed to DETA-NO 50 μM
Mtb H37Rv = test: Mycobactericidal activity against Mtb (CFU); format: cell-based, Mycobacterium tuberculosis
α-chymotrypsin = α-chymotrypsin (Bos taurus, UniProt P00766); test: Inhibition of α-chymotrypsin; format: biochemical, mammalian
Excerpt: The unique inactivation mechanism of oxathiazol-2-ones led to an examination of selectivity of these compounds among non-proteasomal proteases, such as chymotrypsin, trypsin, cathepsin B, and matrix metalloproteinase (MMP)-2, representatives of the serine-, cysteine-, and matrix metalloproteinase classes. […] In contrast to the proteasome's N-terminal Thr active site residue, chymotrypsin's active site Ser residue is positioned internally. Given the lack of a terminal NH2 group, the acyl-enzyme intermediate formed by reaction of oxathiazol-2-one with the γ-OH of chymotrypsin's active site Ser can undergo either aqueous hydrolysis to reactivate the enzyme or regeneration of oxathiazol-2-one by the released —OH or —SH group attacking —CO-γO-Ser.

Mtb PrcAB-OG [3] = test: biochemical; format: biochemical, Mycobacterium tuberculosis
Mtb proteasome [4] = target: T2, Mtb proteasome (Mycobacterium tuberculosis, UniProt P9WHT9); format: biochemical; settings: dialysis 18 hours against inhibitor-free buffer
T2 construct: made in house; host or cells: E. coli
T2 sequence (P9WHT9 58-291): as above
T2 sequence (P9WHU1 9-248 partner, looked up, natural form): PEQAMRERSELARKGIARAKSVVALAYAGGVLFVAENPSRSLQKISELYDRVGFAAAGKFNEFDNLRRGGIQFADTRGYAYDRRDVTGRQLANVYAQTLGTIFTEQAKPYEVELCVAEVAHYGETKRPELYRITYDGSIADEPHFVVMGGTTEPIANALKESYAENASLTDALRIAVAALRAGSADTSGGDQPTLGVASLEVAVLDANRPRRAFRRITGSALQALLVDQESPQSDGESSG

[5] = target: proteasome in M. bovis BCG (Mycobacterium bovis, UniProt A1KKF3); test: cell-based; settings: read-out: intrabacterial proteasome inhibition
Chain of proteasome in M. bovis BCG (A1KKF3 whole entry, looked up): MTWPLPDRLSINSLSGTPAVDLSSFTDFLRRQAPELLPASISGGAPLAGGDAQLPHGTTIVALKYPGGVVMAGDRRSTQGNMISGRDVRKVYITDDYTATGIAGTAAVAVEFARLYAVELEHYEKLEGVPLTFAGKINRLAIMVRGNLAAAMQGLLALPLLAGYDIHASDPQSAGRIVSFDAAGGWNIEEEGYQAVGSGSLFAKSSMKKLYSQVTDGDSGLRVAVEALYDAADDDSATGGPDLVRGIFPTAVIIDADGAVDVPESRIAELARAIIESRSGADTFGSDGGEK

human skin fibroblasts = test: Cytotoxicity, human skin fibroblasts; format: cell-based; settings: up to 50 μM, 4 days
Description: (§1) Given that proteasome-inhibiting oxathiazol-2ones killed mycobacteria, their impact on the survival of mammalian cells was tested. […] In contrast, less than 10% of Vero cells remained viable after 4-day exposure to 25 nM bortezomib. Finally, because most Mtb in nature resides in human macrophages, we exposed human monocyte-derived macrophages (mostly multinucleated giant cells) to 100 μM GL3, GL5 or GL6 for 7 days.

human lung fibroblasts = test: Cytotoxicity, human lung fibroblasts; format: cell-based; settings: up to 50 μM, 4 days
Description: as §1

[6] = tested on: Vero monkey kidney epithelial cells; test: Cytotoxicity, Vero cells; format: cell-based; settings: for cytotoxicity: up to 50 μM, 4 days
Description: as §1

[7] = tested on: mouse macrophage-like RAW264.7 cells; test: Cytotoxicity, RAW264.7 cells; format: cell-based; settings: up to 50 μM, 4 days
Description: as §1

[8] = tested on: human monocyte-derived macrophages; test: Cytotoxicity, human monocyte-derived macrophages; format: cell-based; settings: 7 days
Description: as §1

Mtb PrcAB-OG [9] = target: T1, Mtb PrcAB-OG; format: biochemical
Target sequence in this assay (P9WHT9 58-291): as the sequence (P9WHT9 58-291) above
Target sequence in this assay (P9WHU1 9-248 partner, looked up, natural form): as the sequence (P9WHU1 9-248 partner, looked up, natural form) above

Mtb proteasome [10] = target: T2, Mtb proteasome; test: Preliminary inhibition studies of Mtb proteasome with oligopeptide substrates; format: biochemical
human proteasome = human proteasome (Homo sapiens, UniProt P28072+P28074+Q99436); test: Preliminary inhibition studies of human proteasome with oligopeptide substrates
[11] = Mycobacterium tuberculosis, H37RV, 96 h; read-out: Mtb killing (50 μM)
[12] = Table 1, read-out: kobs/[I] Mtb-OG
[13] = 50 μM, 4 days, Mtb exposed overnight to 100 μM DETA
[14] = 50 μM, 4 days, Mtb exposed overnight to 100 μM DETA-NO

Work on `O=c1oc(-c2cccc(F)c2)ns1` [HT1071] yielded a kinact/KI (Mtb PrcAB-OG [1]; read-out: kobs/[I] Mtb-OG) of 1060 M⁻¹ s⁻¹, a kinact/KI ([2]; read-out: kobs/[I] Hu20S PA28) of 31.3 M⁻¹ s⁻¹ and a log reduction at 25 µM (M. bovis BCG) greater than 3. It also gave a log reduction at 50 µM (Mtb H37Rv; [11]) of 2.2 and an IC50 (α-chymotrypsin) of 2.67 µM.
With `Cc1sc(-c2nsc(=O)o2)cc1[N+](=O)[O-]` [HT1171] the kinact/KI (Mtb PrcAB-OG [1]; [12]) was 3490 M⁻¹ s⁻¹.
In the case of `O=c1oc(-c2ccc([N+](=O)[O-])cc2)ns1` [HT1041], the kinact/KI (Mtb PrcAB-OG [1]; read-out: kobs/[I] Mtb-OG) is reported as 598 M⁻¹ s⁻¹, the kinact/KI ([2]; read-out: kobs/[I] Hu20S PA28) is reported as 12.9 M⁻¹ s⁻¹ and the log reduction at 25 µM (M. bovis BCG) is reported as 0.8. The log reduction at 50 µM (Mtb H37Rv; [11]) was 1.7 and the IC50 (α-chymotrypsin) was 2.08 µM.
`Cc1ccc(-c2nsc(=O)o2)s1` [HT1044] was tested, and the kinact/KI (Mtb PrcAB-OG [1]; [12]) was 1070 M⁻¹ s⁻¹, the kinact/KI ([2]; read-out: kobs/[I] Hu20S PA28) was 148 M⁻¹ s⁻¹ and the log reduction at 25 µM (M. bovis BCG) was 1.7. The log reduction at 50 µM (Mtb H37Rv; [11]) was 2 and the IC50 (α-chymotrypsin) was 8.02 µM.
`Cc1cccc(-c2nsc(=O)o2)c1` [HT1118] was tested, and the kinact/KI (Mtb PrcAB-OG [1]; read-out: kobs/[I] Mtb-OG) was 133 M⁻¹ s⁻¹, the kinact/KI ([2]; read-out: kobs/[I] Hu20S PA28) was 11.3 M⁻¹ s⁻¹ and the log reduction at 25 µM (M. bovis BCG) was 0.8. The log reduction at 50 µM (Mtb H37Rv; [11]) was 1.7 and the IC50 (α-chymotrypsin) was 15.8 µM.
In the case of `CSc1sc(C)cc1-c1nsc(=O)o1` [GL5], the “Hill coefficient (Mtb PrcAB-OG)” value (Mtb PrcAB-OG [1]) is reported as 1, the “effect of substrate concentration on rate of inactivation” value (Mtb PrcAB-OG [1]) is reported as “Increasing substrate concentration reduced the rate of proteasome inactivation” and the kinact/K (Mtb PrcAB-OG [1]; Mtb PrcAB-OG, corrected for substrate competition, […]) is reported as 625 ± 12.2^b M^−1s^−1. For the same molecule, the kinact/KI (Mtb PrcAB-OG [1]; [12]) was 376 M⁻¹ s⁻¹, the kinact/KI (Mtb PrcAB-OG [1]; corrected for substrate competition, read-out: kinact/K for GL5 vs Mtb proteasome) was 624 ± 12.2 M⁻¹ s⁻¹ and the kinact/KI (Mtb PrcAB-OG [1]; slope of kobs vs [I], not corrected for substrate competition, read-out: apparent value of kobs/[I]) was 476 ± 9.3 M⁻¹ s⁻¹. For the same molecule, the “improvement in species selectivity ratio relative to bortezomib” value (Mtb PrcAB-OG [3]) was roughly 1160 fold, the “selectivity toward Mtb proteasome over human β5 proteasome subunit” value (Mtb PrcAB-OG [3]) was 64 fold and the Ratio (Mtb PrcAB-OG [3]; kobs/[I] Mtb-OG versus Hu20S PA28) was 1033. For the same molecule, the “reversibility of inactivation of human proteasome β5 subunit” value ([2]; plots of kobs vs [I] not passing through origin) was “reversible”, the kinact/KI ([2]; read-out: kobs/[I] H20S-β5) was 9.8 ± 1.3 M⁻¹ s⁻¹ and the kinact/KI ([2]; read-out: kobs/[I] Hu20S PA28) was 0.4 M⁻¹ s⁻¹. For the same molecule, the “reduction of colony forming units (CFU)” value (M. bovis BCG; 25 μM, 4 days) was 400 fold, the “reduction of colony forming units (CFU)” value (M. bovis BCG; 50 μM, 4 days) was “more than 2000 fold” and the log reduction at 25 µM (M. bovis BCG) was greater than 2. For the same molecule, the “killing of BCG” value (M. bovis BCG; alone and with DETA-NO 50 μM, 4 days) was “able to kill BCG”, the “reduction of number of CFU” value (Mtb H37Rv; [13]) was “not if they had been exposed to DETA” and the “reduction of number of CFU” value (Mtb H37Rv; [14]) was 47 fold. For the same molecule, the log reduction at 50 µM (Mtb H37Rv; Mycobacterium tuberculosis, H37RV, 96 h, read-out: Mtb killing (50 μM)) was 1.4, the IC50 (α-chymotrypsin) was 0.064 µM and the Ki (α-chymotrypsin; reversible, time-independent inhibition) was 64 nM. For the same molecule, the “activity recovered after dialysis” value (Mtb proteasome [4]) was “did not restore the activity”, the inhibition at 10 µM [5] was no less than 50% and the cytotoxicity (human skin fibroblasts) was “no evident cytotoxicity”. For the same molecule, the cytotoxicity (human lung fibroblasts) was “no evident cytotoxicity”, the cytotoxicity [6] was “no evident cytotoxicity” and the cytotoxicity [7] was “no evident cytotoxicity”. The “morphologic sign of cytotoxicity” value ([8]; 100 μM) was “no morphologic sign of cytotoxicity”.
Work on `Cc1ccc(-c2nsc(=O)o2)cc1` [HT1117] yielded a kinact/KI (Mtb PrcAB-OG [1]; [12]) of 433 M⁻¹ s⁻¹, a kinact/KI ([2]; read-out: kobs/[I] Hu20S PA28) of 53.4 M⁻¹ s⁻¹ and an IC50 (α-chymotrypsin) of 3.67 µM.
With `O=c1oc(-c2ccccn2)ns1` [HT1043] the kinact/KI (Mtb PrcAB-OG [1]; read-out: kobs/[I] Mtb-OG) was 460 M⁻¹ s⁻¹, the kinact/KI ([2]; read-out: kobs/[I] Hu20S PA28) was 0.2 M⁻¹ s⁻¹ and the log reduction at 25 µM (M. bovis BCG) was 1. For the same molecule, the log reduction at 50 µM (Mtb H37Rv; [11]) was 1.8 and the IC50 (α-chymotrypsin) was 16.6 µM.
In the case of `Cc1cc(-c2nsc(=O)o2)c(S(C)(=O)=O)s1` [GL6], the “reduction of number of CFU” value (Mtb H37Rv; [13]) is reported as “did not lead to a reduction of CFU”, the “reduction of number of CFU” value (Mtb H37Rv; [14]) is reported as “did not lead to a reduction of CFU” and the “prevention of β-casein degradation by Mtb proteasome” value (Mtb PrcAB-OG [9]) is reported as “but not GL6”. For the same molecule, the cytotoxicity (human skin fibroblasts) was “no evident cytotoxicity”, the cytotoxicity (human lung fibroblasts) was “no evident cytotoxicity” and the cytotoxicity [6] was “no evident cytotoxicity”. The cytotoxicity [7] was “no evident cytotoxicity”, the “morphologic sign of cytotoxicity” value ([8]; 100 μM) was “no morphologic sign of cytotoxicity” and the “inhibition of Mtb proteasome” value (Mtb proteasome [10]) was “inhibited neither”. For the same molecule, the “inhibition of human proteasome” value (human proteasome) was “inhibited neither”.
Molecule `COc1cccc(-c2nsc(=O)o2)c1` [HT1054] has a kinact/KI (Mtb PrcAB-OG [1]; read-out: kobs/[I] Mtb-OG) of 636 M⁻¹ s⁻¹, a kinact/KI ([2]; read-out: kobs/[I] Hu20S PA28) of 14.8 M⁻¹ s⁻¹ and a log reduction at 25 µM (M. bovis BCG) greater than 3. It also gave a log reduction at 50 µM (Mtb H37Rv; [11]) of 2 and an IC50 (α-chymotrypsin) of 2.19 µM.
`O=c1oc(-c2cccc(C(F)(F)F)c2)ns1` [HT1086] was tested, and the kinact/KI (Mtb PrcAB-OG [1]; [12]) was 155 M⁻¹ s⁻¹, the kinact/KI ([2]; read-out: kobs/[I] Hu20S PA28) was 0.4 M⁻¹ s⁻¹ and the IC50 (α-chymotrypsin) was 48.1 µM.
For `COc1cc(OC)cc(-c2nsc(=O)o2)c1` [HT1147], the kinact/KI (Mtb PrcAB-OG [1]; [12]) was 45.8 M⁻¹ s⁻¹ and the IC50 (α-chymotrypsin) was 83.9 µM.
`O=c1oc(-c2ccccc2)ns1` [HT1146] showed a kinact/KI (Mtb PrcAB-OG [1]; [12]) of 409 M⁻¹ s⁻¹, a kinact/KI ([2]; read-out: kobs/[I] Hu20S PA28) of 31.3 M⁻¹ s⁻¹ and an IC50 (α-chymotrypsin) of 10 µM.
With `C[C@@]12OC(=O)[C@]1([C@@H](O)[C@@H]1C=CCCC1)NC(=O)[C@@H]2CCCl` [NPI-0052] the “activity recovered after dialysis” value (Mtb proteasome [4]) was “did not restore the activity”.
`CC(C)C[C@H](NC(=O)[C@H](Cc1ccccc1)NC(=O)c1cnccn1)B(O)O` [bortezomib, reference compound] was tested, and the “activity recovered after dialysis” value (Mtb proteasome [4]) was 70%, the “Vero cells remaining viable” value ([6]; 25 nM, 4-day exposure) was “less than 10%” and the “morphologic sign of cytotoxicity” value ([8]; 0.5 μM) was “rounded up or appeared to disintegrate”.
`O=c1oc(-c2cccc([N+](=O)[O-])c2)ns1` [HT1042] was tested, and the kinact/KI (Mtb PrcAB-OG [1]; read-out: kobs/[I] Mtb-OG) was 729 M⁻¹ s⁻¹, the kinact/KI ([2]; read-out: kobs/[I] Hu20S PA28) was 10.3 M⁻¹ s⁻¹ and the log reduction at 25 µM (M. bovis BCG) was 2. For the same molecule, the log reduction at 50 µM (Mtb H37Rv; [11]) was 1.7 and the IC50 (α-chymotrypsin) was 3.14 µM.
With `O=c1oc(-c2cnccn2)ns1` [5-(pyrazin-2-yl)-1,3,4-oxathiazol-2-one] the “inhibition of Mtb proteasome” value (Mtb proteasome [10]) was “found to inhibit the Mtb proteasome, albeit less potently than GL5”.
In the case of `O=c1oc(-c2ccco2)ns1` [HT1113], the kinact/KI (Mtb PrcAB-OG [1]; [12]) is reported as 435 M⁻¹ s⁻¹, the kinact/KI ([2]; read-out: kobs/[I] Hu20S PA28) is reported as 10.1 M⁻¹ s⁻¹ and the log reduction at 25 µM (M. bovis BCG) is reported as 1. It also gave a log reduction at 50 µM (Mtb H37Rv; [11]) of 2 and an IC50 (α-chymotrypsin) of 22.7 µM.
`O=c1oc(-c2cc([N+](=O)[O-])cs2)ns1` [HT1016] gave a kinact/KI (Mtb PrcAB-OG [1]; [12]) of 732 M⁻¹ s⁻¹, a kinact/KI ([2]; read-out: kobs/[I] Hu20S PA28) of 12.3 M⁻¹ s⁻¹ and a log reduction at 25 µM (M. bovis BCG) greater than 3. For the same molecule, the log reduction at 50 µM (Mtb H37Rv; [11]) was 2.2 and the IC50 (α-chymotrypsin) was 5.87 µM.
